In data set [1] the test system is rRNA (host RNA polymerase I product). Description: rRNA ΔCt in Huh7 replicon cells (effect on host RNA polymerases). Conditions: Table 24, average of n. The text has this: In a typical setting, a compound might reduce both the host RNA polymerase activity and the replicon-encoded polymerase activity. Therefore, quantification of rRNA (or any other host RNA polymerase I product) or beta-actin mRNA (or any other host RNA polymerase II) and comparison with RNA levels of the no-drug control is a relative measurement of the effect of the test compound on host RNA polymerases.
With the availability of both the HCV ΔCt data and the rRNA ΔCt, a specificity parameter can be introduced. This parameter is obtained by subtracting both ΔCt values from each other.
A general note: In antiviral work, replicon cells carry a viral genome segment that copies itself.

For another data set, the system named is HCV replicon. Description: HCV replicon system in Huh7 cells, replicon RNA by Q-RT-PCR (HCV ΔCt, ΔΔCt). In kind it is cell-based, hepatitis C virus. Conditions: for Ave. ΔΔCt: HCV RNA ΔCt minus rRNA ΔCt; for Ave. HCV RNA ΔCt: HCV replicon in Huh7 cells; for average ΔΔCt: HCV RNA ΔCt minus rDNA ΔCt.
The test system of the next data set is rDNA (host DNA). Description: rDNA ΔCt in Huh7 replicon cells (effect on cellular DNA polymerases). Conditions: Table 25, average of N. The text has this:
In another typical setting, a compound might reduce the host RNA polymerase activity, but not the host DNA polymerase activity. Therefore, quantification of rDNA or beta-actin DNA (or any other host DNA fragment) and comparison with DNA levels of the no-drug control is a relative measurement of the inhibitory effect of the test compound on cellular DNA polymerases.
With the availability of both the HCV ΔCt data and the rDNA ΔCt, a specificity parameter can be introduced. This parameter is obtained by subtracting both ΔCt values from each other.
Note: test concentration or dose not given here.

As for `Nc1nc(=O)n([C@@H]2C=C(CO)[C@@H](O)[C@H]2O)cc1F` [β-D-HB], in data set [1], the “Ave. rRNA ΔCt” value was found to be 1.65. Further, the “Ave. ΔΔCt” value with HCV replicon (Table 24) came out at 1.30. Besides, the “Ave. HCV RNA ΔCt” value was determined as 2.94 with HCV replicon (Table 24, average of n) and 1.90 with HCV replicon (Table 25, average of N). The “average ΔΔCt” value with HCV replicon (Table 25) was 0.40. Moreover, the “Ave. rDNA ΔCt” value with rDNA (host DNA) is recorded as 1.19.

On to `Nc1nc(Cl)c2ncn([C@H]3CS[C@@H](CO)O3)c2n1` [β-D-KB], for which the “Ave. rRNA ΔCt” value in data set [1] is on record as 2.52. Besides, the “Ave. ΔΔCt” value in the data set with HCV replicon (Table 24) came to 1.10. In addition, the “Ave. HCV RNA ΔCt” value is given as 3.61 in the data set with HCV replicon (Table 24, average of n) and 3.81 in the data set with HCV replicon (Table 25, average of N). Besides, the “average ΔΔCt” value in the data set with HCV replicon (Table 25) turned out to be 3.81. In addition, in the data set on rDNA (host DNA), the “Ave. rDNA ΔCt” value came out at 0.00.

On to `O=c1nc2n(cc1F)[C@@H]1O[C@H](CO2)[C@@H](O)[C@H]1O` [β-D-LA], for which the “Ave. rRNA ΔCt” value in data set [1] was 4.10. For the same molecule, in the data set on HCV replicon (Table 24), the “Ave. ΔΔCt” value is 0.89. Further, the “Ave. HCV RNA ΔCt” value in the data set on HCV replicon (Table 24, average of n) was determined as 3.85; with HCV replicon (Table 25, average of N), 3.54. In the data set with HCV replicon (Table 25), the “average ΔΔCt” value is 1.98. The “Ave. rDNA ΔCt” value in the data set on rDNA (host DNA) worked out at 1.56.

As to `CC(=O)O[C@H]1[C@@H]2Oc3nc(=N)ccn3[C@@H]2O[C@@H]1CO` [β-D-MD], the “Ave. rRNA ΔCt” value in data set [1] was determined as 1.95. Besides, the “Ave. ΔΔCt” value with HCV replicon (Table 24) is 1.62. The “Ave. HCV RNA ΔCt” value in the data set with HCV replicon (Table 24, average of n) came out at 3.57; with HCV replicon (Table 25, average of N), 3.50. Moreover, in the data set with HCV replicon (Table 25), the “average ΔΔCt” value is on record as 1.46. Besides, in the data set on rDNA (host DNA), the “Ave. rDNA ΔCt” value is 1.58.

With `N=c1ccn2c(n1)O[C@H]1[C@H](O)[C@@H](CO)O[C@H]12` [β-D-ME], the “Ave. rRNA ΔCt” value in data set [1] was 1.25. In the data set on HCV replicon (Table 24), the “Ave. ΔΔCt” value is given as 1.64. Also, the “Ave. HCV RNA ΔCt” value in the data set with HCV replicon (Table 24, average of n) is reported as 2.89; with HCV replicon (Table 25, average of N) it was 2.89. Also, the “average ΔΔCt” value in the data set with HCV replicon (Table 25) turned out to be 1.36. For the same molecule, in the data set on rDNA (host DNA), the “Ave. rDNA ΔCt” value worked out at 1.53.

Take `N=c1nc2n(cc1F)[C@@H]1O[C@H](CO)[C@@H](O)[C@@H]1O2` [β-D-MF]: the “Ave. rRNA ΔCt” value in data set [1] worked out at 2.69. For the same molecule, the “Ave. ΔΔCt” value in the data set on HCV replicon (Table 24) turned out to be 1.10. Also, the “Ave. HCV RNA ΔCt” value was 3.79 in the data set on HCV replicon (Table 24, average of n) and 3.79 in the data set with HCV replicon (Table 25, average of N). In the data set with HCV replicon (Table 25), the “average ΔΔCt” value is 1.65. For the same molecule, in the data set on rDNA (host DNA), the “Ave. rDNA ΔCt” value stood at 2.17.

As to `Nc1nc(SSc2nc(N)nc3c2ncn3[C@@H]2O[C@H](CO)[C@@H](O)[C@H]2O)c2ncn([C@@H]3O[C@H](CO)[C@@H](O)[C@H]3O)c2n1` [β-D-QA], the “Ave. rRNA ΔCt” value in data set [1] amounted to 3.81. Moreover, the “Ave. ΔΔCt” value with HCV replicon (Table 24) is −0.89. Further, the “Ave. HCV RNA ΔCt” value with HCV replicon (Table 24, average of n) worked out at 2.91; with HCV replicon (Table 25, average of N), 4.85. Further, the “average ΔΔCt” value with HCV replicon (Table 25) is recorded as 2.55. For the same molecule, in the data set with rDNA (host DNA), the “Ave. rDNA ΔCt” value is listed as 2.30.

Consider `Nc1nc(=O)c([C@@H]2O[C@H](CO)[C@@H](O)[C@H]2O)c[nH]1` [β-D-RB], for which the “Ave. rRNA ΔCt” value in data set [1] is recorded as 3.18. In the data set with HCV replicon (Table 24), the “Ave. ΔΔCt” value was found to be 1.12. Besides, the “Ave. HCV RNA ΔCt” value with HCV replicon (Table 24, average of n) is reported as 4.30; in the data set on HCV replicon (Table 25, average of N), 4.00. Further, in the data set on HCV replicon (Table 25), the “average ΔΔCt” value was 2.74. For the same molecule, the “Ave. rDNA ΔCt” value in the data set on rDNA (host DNA) was 1.27.

Take `N=c1nc2c(c[nH]1)[C@@H]1O[C@H](CO)[C@@H](O)[C@@H]1O2` [β-D-TA]: the “Ave. rRNA ΔCt” value in data set [1] is given as 3.31. Besides, in the data set on HCV replicon (Table 24), the “Ave. ΔΔCt” value amounted to 0.69. For the same molecule, the “Ave. HCV RNA ΔCt” value in the data set with HCV replicon (Table 24, average of n) turned out to be 4.00; with HCV replicon (Table 25, average of N), 4.00. Also, in the data set with HCV replicon (Table 25), the “average ΔΔCt” value turned out to be 0.93. Moreover, in the data set with rDNA (host DNA), the “Ave. rDNA ΔCt” value was found to be 3.07.

As to `Nc1ncnc2c([C@@H]3O[C@H](CO)[C@@H](O)[C@H]3O)cnn12` [β-D-UA], the “Ave. rRNA ΔCt” value in data set [1] came out at 1.61. For the same molecule, the “Ave. ΔΔCt” value in the data set with HCV replicon (Table 24) turned out to be 1.3. The “Ave. HCV RNA ΔCt” value with HCV replicon (Table 24, average of n) is given as 2.91; in the data set on HCV replicon (Table 25, average of N), 2.91. Further, the “average ΔΔCt” value with HCV replicon (Table 25) stood at 2.41. Also, the “Ave. rDNA ΔCt” value with rDNA (host DNA) was determined as 0.50.

For `Nc1nc(F)nc2c1ncn2[C@@H]1C=C[C@H](CO)O1` [β-L-FC], in data set [1], the “Ave. rRNA ΔCt” value is 5.13. The “Ave. ΔΔCt” value with HCV replicon (Table 24) is given as 0.42. Also, the “Ave. HCV RNA ΔCt” value is given as 5.55 with HCV replicon (Table 24, average of n) and 4.41 with HCV replicon (Table 25, average of N). In addition, in the data set with HCV replicon (Table 25), the “average ΔΔCt” value was 3.41. Further, in the data set with rDNA (host DNA), the “Ave. rDNA ΔCt” value turned out to be 1.00.

Values taken from patent publication US10100076B2, “Modified nucleosides for the treatment of viral infections and abnormal cellular proliferation” (priority 2000, dated 2018).
